# Results: the NIST ThermoML archive (doi:10.1021/je0301242)
# Numbers after ± are expanded uncertainties.
# Test: excess molar enthalpy (molar enthalpy of mixing); xn = mol fraction of the nth substance listed
# Details: 323.15 K, Liquid, Flow calorimetry
compound,measurement,setting,value
C=CC [propene] + COC,excess molar enthalpy,"3000 kPa, x1 = 0.0427",0.024 ± 0.001 kJ/mol
same,excess molar enthalpy,"3000 kPa, x1 = 0.0861",0.047 ± 0.002 kJ/mol
same,excess molar enthalpy,"3000 kPa, x1 = 0.1301",0.065 ± 0.002 kJ/mol
same,excess molar enthalpy,"3000 kPa, x1 = 0.1748",0.084 ± 0.002 kJ/mol
same,excess molar enthalpy,"3000 kPa, x1 = 0.2203",0.101 ± 0.002 kJ/mol
same,excess molar enthalpy,"3000 kPa, x1 = 0.2664",0.117 ± 0.002 kJ/mol
same,excess molar enthalpy,"3000 kPa, x1 = 0.3133",0.128 ± 0.002 kJ/mol
same,excess molar enthalpy,"3000 kPa, x1 = 0.361",0.139 ± 0.002 kJ/mol
same,excess molar enthalpy,"3000 kPa, x1 = 0.4095",0.148 ± 0.003 kJ/mol
same,excess molar enthalpy,"3000 kPa, x1 = 0.4587",0.154 ± 0.003 kJ/mol
same,excess molar enthalpy,"3000 kPa, x1 = 0.5088",0.156 ± 0.003 kJ/mol
same,excess molar enthalpy,"3000 kPa, x1 = 0.5597",0.155 ± 0.003 kJ/mol
same,excess molar enthalpy,"3000 kPa, x1 = 0.6115",0.152 ± 0.003 kJ/mol
same,excess molar enthalpy,"3000 kPa, x1 = 0.6641",0.145 ± 0.003 kJ/mol
same,excess molar enthalpy,"3000 kPa, x1 = 0.7177",0.133 ± 0.002 kJ/mol
same,excess molar enthalpy,"3000 kPa, x1 = 0.7722",0.116 ± 0.002 kJ/mol
same,excess molar enthalpy,"3000 kPa, x1 = 0.8277",0.093 ± 0.002 kJ/mol
same,excess molar enthalpy,"3000 kPa, x1 = 0.8841",0.067 ± 0.002 kJ/mol
same,excess molar enthalpy,"3000 kPa, x1 = 0.9415",0.033 ± 0.001 kJ/mol
COC [dimethyl ether] + CCC,excess molar enthalpy,"3060 kPa, x2 = 0.0397",0.092 ± 0.002 kJ/mol
same,excess molar enthalpy,"3060 kPa, x2 = 0.0803",0.179 ± 0.003 kJ/mol
same,excess molar enthalpy,"3060 kPa, x2 = 0.1218",0.263 ± 0.004 kJ/mol
same,excess molar enthalpy,"3060 kPa, x2 = 0.1643",0.34 ± 0.004 kJ/mol
same,excess molar enthalpy,"3060 kPa, x2 = 0.2076",0.409 ± 0.005 kJ/mol
same,excess molar enthalpy,"3060 kPa, x2 = 0.252",0.469 ± 0.006 kJ/mol
same,excess molar enthalpy,"3060 kPa, x2 = 0.2974",0.52 ± 0.006 kJ/mol
same,excess molar enthalpy,"3060 kPa, x2 = 0.3439",0.563 ± 0.007 kJ/mol
same,excess molar enthalpy,"3060 kPa, x2 = 0.3914",0.597 ± 0.007 kJ/mol
same,excess molar enthalpy,"3060 kPa, x2 = 0.4401",0.616 ± 0.007 kJ/mol
same,excess molar enthalpy,"3060 kPa, x2 = 0.49",0.626 ± 0.007 kJ/mol
same,excess molar enthalpy,"3060 kPa, x2 = 0.5411",0.625 ± 0.007 kJ/mol
same,excess molar enthalpy,"3060 kPa, x2 = 0.5935",0.608 ± 0.007 kJ/mol
same,excess molar enthalpy,"3060 kPa, x2 = 0.6472",0.575 ± 0.007 kJ/mol
same,excess molar enthalpy,"3060 kPa, x2 = 0.7023",0.529 ± 0.006 kJ/mol
same,excess molar enthalpy,"3060 kPa, x2 = 0.7587",0.458 ± 0.006 kJ/mol
same,excess molar enthalpy,"3060 kPa, x2 = 0.8167",0.368 ± 0.005 kJ/mol
same,excess molar enthalpy,"3060 kPa, x2 = 0.8762",0.255 ± 0.004 kJ/mol
same,excess molar enthalpy,"3060 kPa, x2 = 0.9373",0.125 ± 0.002 kJ/mol
